Earlier results on one compound are cited in paper PMC3401522 (ACS Chemical Biology, 2011).

In this data set the test system is JIP-JNK interaction sites.

The structures appear in SMILES notation. pIC50: −log10 of the molar value.

Usually pIC50 stands for the negative decadic logarithm of the IC50, by convention in mol/L. Take `O=c1[nH]nc(Sc2ncc([N+](=O)[O-])s2)n1-c1ccc2c(c1)OCCO2` [BI-78D3]: the negative-log IC50 (pIC50) is 6.30.
